Consider three compounds from patent US9353100B2, “Macrocyclic serine protease inhibitors, pharmaceutical compositions thereof, and their use for treating HCV infections” (Idenix Pharmaceuticals LLC, priority 2011, dated 2016).

pEC50, pIC50: −log10 of the molar value. Where two headings read alike, the source gives them in different places. Where only a bound is given, the exact number is not on record here.

One series has as its target T1, HCV NS3-NS4A protease 1b (Hepatitis C virus genotype 1b, UniProt Q9WMX2).
T1 construct: HCV NS3-NS4A protease, which was produced according to the method of Taremi et al; made in house
Put plainly: HCV protease assay (FRET peptide), genotype 1b. Type of series: biochemical. The procedure:
(§1) General procedure: Measurement of the inhibitory effect of compounds on HCV protease activity was performed using the HiLyte Fluor™ TR/QXL™ 610 FRET peptide from AnaSpec, Inc. (San Jose, Calif.) under conditions developed in-house using 2-3 nM HCV NS3-NS4A protease, which was produced according to the method of Taremi et al. (Protein Science, 1998, 7, 2143-2149). The compounds were tested at a variety of concentrations in assay buffer containing a final DMSO concentration of 5%. Reactions were allowed to proceed for 60 min at 30° C. and fluorescence measurements were recorded with a PerkinElmer Victor^3 V 1420 Multilabel Counter. The IC50 values were determined from the percent inhibition versus concentration data using a sigmoidal non-linear regression analysis based on four parameters with XLfit 4.1 software.

In the next series the test system is Zluc cells. Put plainly: Cytotoxicity evaluation, Cell Titer 96 AQueous One Solution. Type of series: cell-based, human. The conditions noted are these: cellular viability. The procedure: (§2) For cytotoxicity evaluation, Zluc cells were treated with compounds as described above and cellular viability was monitored using the Cell Titer 96 AQueous One Solution Cell Proliferation Assay (Promega). Plates were then read at 490 nm in a Victor^3V 1420 multilabel counter (Perkin Elmer) and CC50 concentrations were determined using Microsoft Excel and XLfit 4.1 software.

Series [1] has as its system HCV genotype 1a H77 strain subgenomic luciferase replicon (H1a-luc) in Huh-7 cells. Put plainly: HCV luciferase replicon assay, genotype 1a (H1a-luc). The conditions noted are these: for FS (1a/1b): EC50 against genotype 1a HCV divided by EC50 against genotype 1b, replicon luciferase assay; for pEC50: genotype 1a H77 replicon, Huh-7 (H1a-luc), 72 hours, read-out: EC50 Against Relpicon 1a. Type of series: cell-based. The procedure:
(§3) General procedure: The HCV luciferase replicon assay measures the ability of a test compound to inhibit HCV replication in cell culture after 3 days of treatment in a human hepatoma cell line (Huh-7) bearing a HCV replicon containing a luciferase-neomycin phosphotransferase fusion gene. The inhibition of HCV replication was measured by quantification of luciferase protein expression. Briefly, Huh-7 cells containing either the HCV genotype 1a H77 strain or genotype 1b Con1 strain subgenomic luciferase replicon (H1a-luc or Zluc, respectively) were grown in DMEM containing glucose, L-glutamine and sodium pyruvate, 10% fetal bovine serum (FBS), 100 IU/mL penicillin, 100 μg/mL streptomycin, 2 mM GlutaMAX, non-essential amino acids and 0.25 (H1a-luc) or 0.5 (Zluc) mg/mL G418. GlutaMAX was obtained from Invitrogen, Corp.; all other media reagents were obtained from Mediatech, Inc. For dose-response testing, the cells were seeded in 96-well plates at 1×10^4 (H1a-luc) or 7.5×10^3 (Zluc) cells/well in a volume of 50 μL and incubated at 37° C./5% CO2. Three hours after plating, 50 μL of ten 5-fold serial dilutions of compound were added, and cell cultures were incubated at 37° C./5% CO2 for 72 hours. In all cases, Huh-7 cells lacking the HCV replicon served as negative control. To assess luciferase expression, the media/compound was removed from the plates and ONE-glo Luciferase assay reagent (Promega) was added to each well. The assay plates were shaken for 3 minutes at room temperature and luciferase activity for each well was measured with a 1 sec read time on the Victor^3V multilabel counter using a 700 nm cut-off filter (Perkin Elmer). EC50 values were calculated from dose response curves from the resulting best-fit equations determined by Microsoft Excel and XLfit 4.1 software.
In general terms: A replicon is a self-replicating genome or part of one, used to study replication in cells.

The subject of series [2] is HCV genotype 1b Con1 strain subgenomic luciferase replicon (Zluc) in Huh-7 cells. As to the kind of experiment: HCV luciferase replicon assay, genotype 1b (Zluc). In kind it is cell-based. The conditions noted are these: genotype 1b Con1 replicon, Huh-7 (Zluc), 72 hours, read-out: EC50 Against Relpicon 1b. The procedure: as §3
For another series, the target named is T2, HCV NS3-NS4A protease 4a (Hepatitis C virus genotype 4a, UniProt O39929).
T2 construct: HCV NS3-NS4A protease, which was produced according to the method of Taremi et al; made in house
Put plainly: HCV protease assay (FRET peptide), genotype 4a. Type of series: biochemical. The conditions noted are these: genotype 4a protease; 60 min at 30° C.; read-out: IC50 Against HS3/4A 4a. The method, then: as §1

Series [3] in a line: Cytotoxicity evaluation, Cell Titer 96 AQueous One Solution. Type of series: cell-based, human. The conditions noted are these: human; Zluc cells, cellular viability. The method, then:
as §2

The target in a further series is T3, HCV NS3-NS4A protease 3a (Hepatitis C virus genotype 3a, UniProt Q81258).
T3 construct: HCV NS3-NS4A protease, which was produced according to the method of Taremi et al; made in house
As to the kind of experiment: HCV protease assay (FRET peptide), genotype 3a. Type of series: biochemical. The method, then: as §1

The next series addresses T4, HCV NS3-NS4A protease 1a (Hepatitis C virus genotype 1a, UniProt P27958).
T4 construct: HCV NS3-NS4A protease, which was produced according to the method of Taremi et al; made in house
As to the kind of experiment: HCV protease assay (FRET peptide), genotype 1a. Type of series: biochemical. The conditions noted are these: genotype 1a protease; 60 min at 30° C.; read-out: IC50 Against HS3/4A 1a. The method, then:
as §1

Series [4] concerns genotype 1b HCV replicon in Zluc cells. As to the kind of experiment: Genotype 1b HCV replicon luciferase assay with 10% FCS or 45% human serum. In kind it is cell-based. The conditions noted are these: EC50 in presence of 45% HS divided by EC50 in presence of 10% FCS. The method, then:
as §3
In Table 1, the values of FS with 45% HS were determined using the genotype 1b HCV replicon luciferase screening assay using Zluc cells, except that activity in the presence of 10% fetal calf serum (FCS) or 45% human serum (HS) was determined in parallel. The fold shift (FS) with 45% HS is the EC50 value in the presence of 45% HS divided by the EC50 value in the presence of 10% FCS. FS (1a/1b) is the EC50 value against genotype 1a HCV divided by the EC50 value against the genotype 1b in the replicon luciferase screening assay.

The target in a further series is T5, HCV NS3-NS4A protease 6a (Hepatitis C virus genotype 6a, UniProt O39927).
T5 construct: HCV NS3-NS4A protease, which was produced according to the method of Taremi et al; made in house
Put plainly: HCV protease assay (FRET peptide), genotype 6a. Type of series: biochemical. The conditions noted are these: genotype 6a protease; 60 min at 30° C.; read-out: IC50 Against HS3/4A 6a. The procedure:
as §1

Another series has as its target T6, HCV NS3-NS4A protease 5a (Hepatitis C virus genotype 5a, UniProt O39928).
T6 construct: HCV NS3-NS4A protease, which was produced according to the method of Taremi et al; made in house
Put plainly: HCV protease assay (FRET peptide), genotype 5a. In kind it is biochemical. The conditions noted are these: genotype 5a protease; 60 min at 30° C.; read-out: IC50 Against HS3/4A 5a. The method, then: as §1

The next series deals with T7, HCV NS3-NS4A protease 2a (Hepatitis C virus genotype 2a, UniProt Q99IB8).
T7 construct: HCV NS3-NS4A protease, which was produced according to the method of Taremi et al; made in house
As to the kind of experiment: HCV protease assay (FRET peptide), genotype 2a. Type of series: biochemical. The conditions noted are these: genotype 2a protease; 60 min at 30° C.; read-out: IC50 Against HS3/4A 2a. The method, then:
as §1

T1 sequence (Q9WMX2 1658-1711): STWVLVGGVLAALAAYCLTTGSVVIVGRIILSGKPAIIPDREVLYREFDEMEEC
T1 sequence (Q9WMX2 1027-1208): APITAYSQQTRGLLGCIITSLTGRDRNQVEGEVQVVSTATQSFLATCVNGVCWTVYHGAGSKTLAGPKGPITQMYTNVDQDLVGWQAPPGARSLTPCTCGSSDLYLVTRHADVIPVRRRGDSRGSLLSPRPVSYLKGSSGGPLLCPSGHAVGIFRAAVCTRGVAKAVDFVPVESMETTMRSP
T6 sequence (O39928 1659-1712): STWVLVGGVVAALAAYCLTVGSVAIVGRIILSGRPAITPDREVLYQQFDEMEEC
T6 sequence (O39928 1028-1209): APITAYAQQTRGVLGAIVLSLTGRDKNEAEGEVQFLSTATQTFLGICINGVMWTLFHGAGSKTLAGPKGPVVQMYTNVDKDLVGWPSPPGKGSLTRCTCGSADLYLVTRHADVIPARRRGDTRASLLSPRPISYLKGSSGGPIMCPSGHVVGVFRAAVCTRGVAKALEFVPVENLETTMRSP
T2 sequence (O39929 1658-1711): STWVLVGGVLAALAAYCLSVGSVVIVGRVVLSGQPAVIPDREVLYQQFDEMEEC
T2 sequence (O39929 1027-1208): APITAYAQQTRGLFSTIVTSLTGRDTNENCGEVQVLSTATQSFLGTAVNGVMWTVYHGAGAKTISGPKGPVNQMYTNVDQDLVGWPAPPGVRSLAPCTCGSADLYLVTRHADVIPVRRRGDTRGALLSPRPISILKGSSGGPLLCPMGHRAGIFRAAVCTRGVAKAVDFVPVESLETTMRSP
T5 sequence (O39927 1031-1212): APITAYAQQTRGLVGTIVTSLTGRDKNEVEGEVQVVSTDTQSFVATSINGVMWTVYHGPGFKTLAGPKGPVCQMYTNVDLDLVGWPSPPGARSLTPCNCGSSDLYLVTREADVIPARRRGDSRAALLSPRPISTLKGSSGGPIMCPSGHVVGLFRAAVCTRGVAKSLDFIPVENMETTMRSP
T5 sequence (O39927 1662-1715): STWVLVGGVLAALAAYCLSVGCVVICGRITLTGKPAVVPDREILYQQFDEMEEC
T3 sequence (Q81258 1664-1717): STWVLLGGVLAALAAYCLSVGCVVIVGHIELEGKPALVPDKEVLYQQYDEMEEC
T3 sequence (Q81258 1033-1214): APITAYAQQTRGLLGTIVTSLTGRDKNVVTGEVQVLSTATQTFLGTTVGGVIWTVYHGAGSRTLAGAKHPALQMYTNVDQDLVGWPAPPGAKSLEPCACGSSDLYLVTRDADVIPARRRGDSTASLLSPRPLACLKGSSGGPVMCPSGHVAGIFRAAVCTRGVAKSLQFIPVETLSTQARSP
T7 sequence (Q99IB8 1662-1715): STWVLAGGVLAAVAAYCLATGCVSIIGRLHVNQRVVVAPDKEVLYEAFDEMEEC
T7 sequence (Q99IB8 1031-1212): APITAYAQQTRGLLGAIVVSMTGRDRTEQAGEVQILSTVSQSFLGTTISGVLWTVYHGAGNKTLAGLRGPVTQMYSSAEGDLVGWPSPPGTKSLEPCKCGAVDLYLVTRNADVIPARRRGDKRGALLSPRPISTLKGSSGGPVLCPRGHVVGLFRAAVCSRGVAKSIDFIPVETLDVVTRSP
T4 sequence (P27958 1027-1208): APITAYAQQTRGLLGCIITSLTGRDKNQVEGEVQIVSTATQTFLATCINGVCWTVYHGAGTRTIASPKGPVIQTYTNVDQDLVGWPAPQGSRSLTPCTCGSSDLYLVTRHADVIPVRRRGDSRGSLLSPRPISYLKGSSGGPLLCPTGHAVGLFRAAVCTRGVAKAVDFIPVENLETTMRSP
T4 sequence (P27958 1658-1711): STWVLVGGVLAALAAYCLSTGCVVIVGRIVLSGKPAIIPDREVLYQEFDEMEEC

In general, CC50 refers to the concentration that lowers cell viability or growth by half. A lower CC50 goes with harm at low concentration. One may read the pEC50 as −log10 of the EC50, conventionally taken in molar units. As for “(1R,4R,6R,15R,18S)-1-methyl-cyclopropanesulfonic acid [18-(2,5-diphenyl-thiazol-4-yloxy)-13-methyl-2,14-dioxo-3,13-diaza-tricyclo[13.4.0.0]nonadec-7-ene-4-carbonyl]-amide [Compound D103]”, the pIC50 at HCV NS3-NS4A protease 1b (genotype 1b protease, 60 min at 30° C., read-out: IC50 Against HS3/4A 1b) was 7.00 to 8.00. This compound showed a CC50 in the series on Zluc cells of over 10000 nM. The “FS (1a/1b)” value in series [1] worked out at 113. Besides, the values for the pEC50 in [1] and in series [2] were 5.00 to 6.00 and 7.00 to 8.00, respectively.
Take `COc1ccc2c(O[C@H]3CC[C@H]4C(=O)N(C)CCCC/C=C\[C@@H]5C[C@@]5(C(=O)NS(=O)(=O)C5(C)CC5)NC(=O)[C@@H]4C3)cc(-c3nc(C(F)(F)F)cs3)nc2c1C` [Compound 17b, (1R,4R,6R,15R,18S)-1-methyl-cyclopropanesulfonic acid-{18-[7-methoxy-8-methyl-2-(4-trifluoromethyl-thiazol-2-yl)-quinolin-4-yloxy]-13-methyl-2,14-dioxo-3,13-diaza-tricyclo[13.4.0.0]nonadec-7-ene-4-carbonyl}-amide, reference compound]: the pIC50 at HCV NS3-NS4A protease 4a is over 8.00; against HCV NS3-NS4A protease 1b, over 8.00; against HCV NS3-NS4A protease 3a it was 6.00 to 7.00; at HCV NS3-NS4A protease 1a, over 8.00; on HCV NS3-NS4A protease 6a it was over 8.00; on HCV NS3-NS4A protease 5a, over 8.00. The pIC50 at HCV NS3-NS4A protease 2a was over 8.00. In addition, the CC50 in series [3] is over 10000 nM. The “FS (1a/1b)” value in series [1] is reported as 6. In addition, the pEC50 in series [1] (Hepatitis C virus) and in [2] (Hepatitis C virus) was over 8.00 throughout. In addition, the “FS with 45% HS” value in series [4] turned out to be 80.
For `Cc1csc(-c2cc(O[C@H]3CC[C@H]4C(=O)N(C)CCCC/C=C\[C@@H]5C[C@@]5(C(=O)NS(=O)(=O)C5(C)CC5)NC(=O)[C@@H]4C3)nc(-c3nc(C(F)(F)F)cs3)n2)n1` [Compound C101, (1R,4R,6R,15R,18S)-1-methyl-cyclopropanesulfonic acid {13-methyl-18-[6-(4-methyl-thiazol-2-yl)-2-(4-trifluoromethyl-thiazol-2-yl)-pyrimidin-4-yloxy]-2,14-dioxo-3,13-diaza-tricyclo[13.4.0.0]nonadec-7-ene-4-carbonyl}-amide], the pIC50 on HCV NS3-NS4A protease 4a, against HCV NS3-NS4A protease 1b, on HCV NS3-NS4A protease 3a, on HCV NS3-NS4A protease 1a, at HCV NS3-NS4A protease 6a and at HCV NS3-NS4A protease 5a was over 8.00 in each case. At HCV NS3-NS4A protease 2a, the pIC50 was over 8.00. The compound further showed a CC50 in series [3] of over 10000 nM. Moreover, the “FS (1a/1b)” value in series [1] is given as 7. Also, the negative-log EC50 (pEC50) in series [1] (Hepatitis C virus) and in series [2] (Hepatitis C virus) was over 8.00 in each case. Besides, in [4], the “FS with 45% HS” value was 16.
